Results as given in patent US20170151373A1, “ANTIMICROBIAL SOLUTIONS WITH ENHANCED STABILITY” (Board of Regents, The University of Texas System, priority 2015, published 2017).
Read-outs that look alike come from different tables or passages of the source.

How the values were obtained:
[1] = pH measurement of solutions (pH meter); assay type: physicochemical
Method: A solution containing disodium EDTA that was pH adjusted using base was prepare by the following method: • 1. Weigh out 300 mg disodium EDTA powder in 30 ml vial, and dissolve in 9.3 mL sterile water. Shake EDTA and sterile water until completely dissolved. QS to 10 ml with water. […] Measure pH, Add 1M NaOH recording volume added and remeasure pH.
A solution containing tetrasodium EDTA pH adjusted with disodium EDTA was prepared by the following method: • 1. Weigh out 300 mg disodium EDTA powder in 30 ml vial, and dissolve in 9.3 mL sterile water. Shake EDTA and sterile water until completely dissolved. QS to 10 ml with water. […] Weigh out 300 mg tetrasodium EDTA powder in 30 ml vial, and dissolve in 9.3 mL sterile water. Shake EDTA and sterile water until completely dissolved. QS to 10 ml with water. […] Measure pH of tetrasodium EDTA and add disodium EDTA recording volume added and pH after each addition • The following solutions were produced:
7. Prepare 19 syringes with 1 mL in each syringe. (1-3 mL sterile syringe can be used) Label the syringes and protect from light. • The pH from seven syringes, sampled randomly, were measured using a pH meter.

[2] = cited from earlier work; for fraction of EDTA that is tetravalent: 0.1 Molar (Harris 2010)

Work on `O=C([O-])CN(CCN(CC(=O)O)CC(=O)O)CC(=O)[O-].[Na+].[Na+]` [3% disodium EDTA, Ethylenediamine-N,N,N′,N′,-tetraacetic acid, disodium salt] yielded a pH ([1]; 10 ml 3% disodium EDTA, total volume 1M NaOH added 0) of 4.5, a pH ([1]; 10 ml 3% disodium EDTA, total volume 1M NaOH added 0.5 ml) of 4.9 and a pH ([1]; 10 ml 3% disodium EDTA, total volume 1M NaOH added 1.0 ml) of 5.4. For the same compound, the pH ([1]; 10 ml 3% disodium EDTA, total volume 1M NaOH added 1.5 ml) was 6.9 and the pH ([1]; 10 ml 3% disodium EDTA, total volume 1M NaOH added 1.7 ml) was 7.4.

With `O=C([O-])CN(CCN(CC(=O)[O-])CC(=O)[O-])CC(=O)[O-].[Na+].[Na+].[Na+].[Na+]` [3% tetrasodium EDTA, Ethylenediamine-N,N,N′,N′-tetraacetic acid, tetrasodium salt] the pH ([1]; 5 ml 3% tetrasodium EDTA, total volume 3% disodium EDTA added 0) was 10.9, the pH ([1]; 5 ml 3% tetrasodium EDTA, total volume 3% disodium EDTA added 1 ml) was 10.2 and the pH ([1]; 5 ml 3% tetrasodium EDTA, total volume 3% disodium EDTA added 2 ml) was 9.5. The pH ([1]; 5 ml 3% tetrasodium EDTA, total volume 3% disodium EDTA added 3 ml) was 9.0, the pH ([1]; 5 ml 3% tetrasodium EDTA, total volume 3% disodium EDTA added 4 ml) was 8.8 and the pH ([1]; 5 ml 3% tetrasodium EDTA, total volume 3% disodium EDTA added 5 ml) was 8.1. For the same compound, the pH ([1]; 5 ml 3% tetrasodium EDTA, total volume 3% disodium EDTA added 6 ml) was 7.1.

For `O=C([O-])CN(CCN(CC(=O)[O-])CC(=O)O)CC(=O)[O-].[Na+].[Na+].[Na+]` [Trisodium EDTA, Ethylenediamine-N,N,N′,N′,-tetraacetic acid, trisodium salt], the pH ([2]; vendor product (Dissolvine NA3-36)) is given as 9.5.

For `O=C(O)CN(CCN(CC(=O)O)CC(=O)O)CC(=O)O` [pure tetra-acid EDTA, Ethylenediamine-N,N,N′,N′,-tetraacetic acid], the pH ([1]; in water/ethanol, Example 1) is given as 3.1, the “fraction of EDTA that is tetravalent” value ([2]; pH 6, 20 degrees Celsius) is given as “about 0.000018” and the “fraction of EDTA that is tetravalent” value ([2]; pH 8, 20 degrees Celsius) is given as “about 0.0042”.
